Measured values published in US20090111801A1, “SUBSTITUTED PYRAZINONE DERIVATIVES FOR USE AS A MEDICINE” (Janssen Pharmaceutica N.V., priority 2006, published 2009).

What was measured:
hα2A receptor = target: T1, hα2A receptor (Homo sapiens, UniProt P08913); assay: Radioligand binding experiment for α2A-adrenoceptor ([3H]raulwolscine, CHO cell membranes); conditions: [3H]raulwolscine binding; for IC50: read-out: h-α2A pIC50 (converted)
T1 construct: expressed in transfected cells; host or cells: CHO cells, stably transfected; membrane preparation
T1 sequence (P08913 1-465): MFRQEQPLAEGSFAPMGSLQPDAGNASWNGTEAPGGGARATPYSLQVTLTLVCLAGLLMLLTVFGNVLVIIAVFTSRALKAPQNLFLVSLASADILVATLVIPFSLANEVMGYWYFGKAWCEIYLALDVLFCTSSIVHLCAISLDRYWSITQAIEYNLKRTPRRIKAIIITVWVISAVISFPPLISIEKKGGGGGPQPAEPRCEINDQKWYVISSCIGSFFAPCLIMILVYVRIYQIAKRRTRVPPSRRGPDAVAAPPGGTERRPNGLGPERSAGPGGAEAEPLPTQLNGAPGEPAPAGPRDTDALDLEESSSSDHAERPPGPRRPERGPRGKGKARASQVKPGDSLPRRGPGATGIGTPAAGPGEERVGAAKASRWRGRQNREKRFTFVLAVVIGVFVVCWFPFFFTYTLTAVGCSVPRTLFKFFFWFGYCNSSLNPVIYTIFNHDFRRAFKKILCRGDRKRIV
Protocol: (§1) The interaction of a compound of Formula (I) with α2-adrenoceptor receptors was assessed in in vitro radioligand binding experiments. In general, a low concentration of a radioligand with a high binding affinity for a particular receptor or transporter is incubated with a sample of a tissue preparation enriched in a particular receptor or transporter or with a preparation of cells expressing cloned human receptors in a buffered medium. During the incubation, the radioligand binds to the receptor or transporter. When equilibrium of binding is reached, the receptor bound radioactivity is separated from the non-bound radioactivity, and the receptor- or transporter-bound activity is counted. The interaction of the test compounds with the receptor is assessed in competition binding experiments. Various concentrations of the test compound are added to the incubation mixture containing the receptor- or transporter preparation and the radioligand. The test compound in proportion to its binding affinity and its concentration inhibits binding of the radioligand. The radioligand used for hα2A and hα2C receptor binding was [^3H]-raulwolscine.
(§2) CHO cells, stabile transfected with human adrenergic-α2A and α2C receptor cDNA, were cultured in Dulbecco's Modified Eagle's Medium (DMEM)/Nutrient mixture Ham's F12 (ratio 1:1)(Gibco, Gent-Belgium) supplemented with 10% heat inactivated fetal calf serum (Life Technologies, Merelbeke-Belgium) and antibiotics (100 IU/ml penicillin G, 100 μg/ml streptomycin sulphate, 110 μg/ml pyruvic acid and 100 μg/ml L-glutamine). One day before collection, cells were induced with 5 mM sodiumbutyrate. Upon 80-90% of confluence, cells were scraped in phosphate buffered saline without Ca^2+ and Mg^2+ and collected by centrifugation at 1500×g for 10 minutes. The cells were homogenised in Tris-HCl 50 mM using an Ultraturrax homogenizer and centrifuged for 10 minutes at 23,500×g. The pellet was washed once by resuspension and rehomogenization and the final pellet was resuspended in Tris-HCl, divided in 1 ml aliquots and stored at −70° C.
(§3) Membranes were thawed and re-homogenized in incubation buffer (glycylglycine 25 mM, pH 8.0). […] Filters were rinsed extensively with ice-cold rinsing buffer (Tris-HCl 50 mM pH 7.4). Filter-bound radioactivity was determined by scintillation counting in a Topcount (Packard, Meriden, Conn.) and results were expressed as counts per minute (cpm). Non-specific binding was determined in the presence of 1 μM oxymetazoline for the hα2A receptor and 1 μM spiroxatrine for hα2C receptor.
(§4) Data from assays in the presence of compound were calculated as a percentage of total binding measured in the absence of test compound. Inhibition curves, plotting percent of total binding versus the log value of the concentration of the test compound, were automatically generated, and sigmoidal inhibition curves were fitted using non-linear regression. The pIC50 values of test compounds were derived from individual curves.

hα2C receptor = target: T2, hα2C receptor (Homo sapiens, UniProt P18825); assay: Radioligand binding experiment for α2C-adrenoceptor ([3H]raulwolscine, CHO cell membranes); conditions: [3H]raulwolscine binding; for IC50: read-out: h-α2C pIC50 (converted)
T2 construct: expressed in transfected cells; host or cells: CHO cells, stably transfected; membrane preparation
T2 sequence (P18825 1-462): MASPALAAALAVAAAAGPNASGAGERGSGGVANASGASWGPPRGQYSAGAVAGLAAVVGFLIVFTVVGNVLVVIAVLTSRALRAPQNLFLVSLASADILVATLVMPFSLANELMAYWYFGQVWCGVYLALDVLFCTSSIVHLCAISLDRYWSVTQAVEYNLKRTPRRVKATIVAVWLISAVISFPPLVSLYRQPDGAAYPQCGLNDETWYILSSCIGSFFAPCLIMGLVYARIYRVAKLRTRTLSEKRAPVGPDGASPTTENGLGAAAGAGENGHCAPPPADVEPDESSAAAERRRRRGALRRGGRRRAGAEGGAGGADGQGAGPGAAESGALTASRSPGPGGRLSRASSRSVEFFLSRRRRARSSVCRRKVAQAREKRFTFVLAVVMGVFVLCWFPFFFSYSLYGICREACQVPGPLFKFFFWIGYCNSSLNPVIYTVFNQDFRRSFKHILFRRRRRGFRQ
Protocol: as §1, §2, §3, §4

5HT-Transporter = target: T3, 5HT-Transporter (Homo sapiens, UniProt P31645); assay: Binding experiment for the 5HT-transporter ([3H]paroxetine, human platelet membranes); conditions: [3H]paroxetine 0.5 nM; for IC50: read-out: h-5HTT pIC50 (converted)
T3 construct: Human platelet membranes (Oceanix Biosciences Corporation, Hanover, Md., USA) were thawed; tissue Oceanix Biosciences Corporation, Hanover, Md., USA; host or cells: human platelet membranes
Protocol: as §1
Human platelet membranes (Oceanix Biosciences Corporation, Hanover, Md., USA) were thawed, diluted in buffer (Tris-HCl 50 mM, 120 mM NaCl and 5 mM KCl) and quickly (max 3 s) homogenised with an Ultraturrax homogenizer. […] Incubation was stopped by rapid filtration of the incubation mixture over GF/B filters, pre-wetted with 0.1% polyethyleneamine, using a Filtermate196 harvester (Packard, Meriden, Conn.). Filters were rinsed extensively with ice-cold buffer and radioactivity on the filters was counted in a Topcount liquid scintillation counter (Packard, Meriden, Conn.). Data were expressed as cpm. Imipramine (at 1 μM final concentration) was used to determine the non-specific binding.
as §4

T3 sequence (P31645 whole entry): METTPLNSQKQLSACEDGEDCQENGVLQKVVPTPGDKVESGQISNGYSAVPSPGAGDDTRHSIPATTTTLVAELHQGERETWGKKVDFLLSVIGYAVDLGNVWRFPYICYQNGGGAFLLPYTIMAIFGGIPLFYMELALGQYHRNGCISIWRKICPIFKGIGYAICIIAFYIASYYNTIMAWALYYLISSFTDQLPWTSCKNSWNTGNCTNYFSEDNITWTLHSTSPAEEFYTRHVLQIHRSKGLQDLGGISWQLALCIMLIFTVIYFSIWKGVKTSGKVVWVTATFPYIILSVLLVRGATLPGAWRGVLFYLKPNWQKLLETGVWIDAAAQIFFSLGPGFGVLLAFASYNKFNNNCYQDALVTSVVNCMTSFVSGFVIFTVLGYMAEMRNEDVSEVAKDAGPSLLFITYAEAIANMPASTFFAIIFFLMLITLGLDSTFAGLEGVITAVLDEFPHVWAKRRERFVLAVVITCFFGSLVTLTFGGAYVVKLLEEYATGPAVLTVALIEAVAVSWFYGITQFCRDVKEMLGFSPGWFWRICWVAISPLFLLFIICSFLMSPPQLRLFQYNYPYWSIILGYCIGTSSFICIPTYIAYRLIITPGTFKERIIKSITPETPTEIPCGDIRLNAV

| IC50 (hα2A receptor) | IC50 (hα2C receptor) | IC50 (5HT-Transporter) | h-α2A pIC50 (hα2A receptor) | h-α2C pIC50 (hα2C receptor) | h-5HTT pIC50 (5HT-Transporter) | SMILES |
| --- | --- | --- | --- | --- | --- | --- |
| 158 nM | 39.8 nM | 794 nM | – | – | – | C/C(=C\c1ccccc1)CN1CCC(Nc2nccn(CC(=O)N(Cc3ccccc3)c3ccccc3)c2=O)CC1 [1-69] |
| 31.6 nM | 20 nM | 158 nM | – | – | – | C/C(=C\c1ccccc1)CN1CCC(Nc2nccn(-c3cccc(N(Cc4ccccc4)c4ccccc4)c3)c2=O)CC1 [1-70] |
| 100 nM | 5.01 nM | 398 nM | – | – | – | C/C(=C\c1ccccc1)CN1CCC(Nc2nccn(CCCN(Cc3ccccc3)Cc3ccccc3)c2=O)CC1 [1-71] |
| 126 nM | 3.16 nM | 1580 nM | – | – | – | C/C(=C\c1ccccc1)CN1CCC(Nc2nccn(CCCNC(=O)c3ccccc3)c2=O)CC1 [1-72] |
| 158 nM | 31.6 nM | 316 nM | – | – | – | C/C(=C\c1ccccc1)CN1CCC(Nc2nccn(Cc3ccc(CNC(=O)c4ccccc4)cc3)c2=O)CC1 [1-73] |
| 251 nM | 10 nM | 3160 nM | – | – | – | C/C(=C\c1ccccc1)CN1CCC(Nc2nccn(CCCN(C)C(=O)c3ccccc3)c2=O)CC1 [1-74] |
| 126 nM | 50.1 nM | 200 nM | – | – | – | C/C(=C\c1ccccc1)CN1CCC(Nc2nccn(Cc3ccc(CNC(=O)c4ccc(C#N)cc4)cc3)c2=O)CC1 [1-75] |
| 20 nM | 31.6 nM | 126 nM | – | – | – | C/C(=C\c1ccccc1)CN1CCC(Nc2nccn(-c3cccc(NC(=O)c4cccc(F)c4)c3)c2=O)CC1 [1-76] |
| 126 nM | 15.8 nM | 251 nM | – | – | – | C/C(=C\c1ccccc1)CN1CCC(Nc2nccn(-c3ccc(NC(=O)c4cccc(F)c4)cc3)c2=O)CC1 [1-77] |
| – | – | – | 6.7 | 8.3 | 7.1 | C/C(=C\c1ccccc1)CN1CCC(Nc2nccn(-c3ccc(CNC(=O)c4ccc(F)cc4)cc3)c2=O)CC1 [1-78] |
| 2000 nM | 39.8 nM | > 10000 nM | – | – | – | C/C(=C\c1ccccc1)CN1CCC(Nc2nccn(CCCN(C)C(=O)c3ccc(F)cc3)c2=O)CC1 [1-79] |
| 200 nM | 25.1 nM | 200 nM | – | – | – | C/C(=C\c1ccccc1)CN1CCC(Nc2nccn(-c3ccc(NC(=O)Cc4ccccc4)cc3)c2=O)CC1 [1-81] |
| 79.4 nM | 25.1 nM | 251 nM | – | – | – | C/C(=C\c1ccccc1)CN1CCC(Nc2nccn(Cc3ccc(CNC(=O)Cc4ccccc4)cc3)c2=O)CC1 [1-82] |
| 100 nM | 10 nM | 1260 nM | – | – | – | C/C(=C\c1ccccc1)CN1CCC(Nc2nccn(CCCN(C)CC(=O)c3ccccc3)c2=O)CC1 [1-84] |
| 158 nM | 10 nM | 1260 nM | – | – | – | CCCC(=O)N(CCCn1ccnc(NC2CCN(C/C(C)=C/c3ccccc3)CC2)c1=O)Cc1ccccc1 [1-85] |
| 158 nM | 15.8 nM | 1000 nM | – | – | – | C/C(=C\c1ccccc1)CN1CCC(Nc2nccn(CCCN(Cc3ccccc3)C(=O)CC3CCCC3)c2=O)CC1 [1-86] |
| 200 nM | 12.6 nM | 1580 nM | – | – | – | C/C(=C\c1ccccc1)CN1CCC(Nc2nccn(CCCN(Cc3ccccc3)C(=O)c3ccccc3)c2=O)CC1 [1-87] |

| IC50 (hα2A receptor) | IC50 (hα2C receptor) | IC50 (5HT-Transporter) | h-α2A pIC50 (hα2A receptor) | h-α2C pIC50 (hα2C receptor) | h-5HTT pIC50 (5HT-Transporter) | SMILES |
| --- | --- | --- | --- | --- | --- | --- |
| 126 nM | 12.6 nM | 631 nM | – | – | – | C/C(=C\c1ccccc1)CN1CCC(Nc2nccn(CCCN(C(=O)Cc3ccccc3)c3ccccc3)c2=O)CC1 [1-88] |
| 200 nM | 12.6 nM | 794 nM | – | – | – | C/C(=C\c1ccccc1)CN1CCC(Nc2nccn(CCCN(Cc3ccccc3)C(=O)Cc3ccccc3)c2=O)CC1 [1-89] |
| 126 nM | 2 nM | 631 nM | – | – | – | C/C(=C\c1ccccc1)CN1CCC(Nc2nccn(CCCN(CC(=O)c3ccccc3)Cc3ccccc3)c2=O)CC1 [1-90] |
| – | – | – | 6.5 | 7.7 | 6.1 | C/C(=C\c1ccccc1)CN1CCC(Nc2nccn(-c3ccc(CNC(=O)OC(C)(C)C)cc3)c2=O)CC1 [1-91] |
| 100 nM | 6.31 nM | 1260 nM | – | – | – | C/C(=C\c1ccccc1)CN1CCC(Nc2nccn(CCCN(C)C(=O)OC(C)(C)C)c2=O)CC1 [1-92] |
| 158 nM | 50.1 nM | 1260 nM | – | – | – | COCC(=O)NCc1ccc(Cn2ccnc(NC3CCN(C/C(C)=C/c4ccccc4)CC3)c2=O)cc1 [1-93] |
| 158 nM | 3.98 nM | 2510 nM | – | – | – | COC(=O)CCNC(=O)Cn1ccnc(NC2CCN(C/C(C)=C/c3ccccc3)CC2)c1=O [1-94] |
| – | – | – | 7.6 | 8.9 | 5.9 | COC(=O)CCNCc1cccc(-n2ccnc(NC3CCN(C/C(C)=C/c4ccccc4)CC3)c2=O)c1 [1-95] |
| – | – | – | 7.1 | 8.6 | 6.0 | COC(=O)CCNCc1ccc(-n2ccnc(NC3CCN(C/C(C)=C/c4ccccc4)CC3)c2=O)cc1 [1-96] |
| 126 nM | 10 nM | 2510 nM | – | – | – | COC(=O)CN(C)C(=O)Cn1ccnc(NC2CCN(C/C(C)=C/c3ccccc3)CC2)c1=O [1-97] |
| – | – | – | 7.5 | 8.9 | 6.0 | COC(=O)CN(C)Cc1cccc(-n2ccnc(NC3CCN(C/C(C)=C/c4ccccc4)CC3)c2=O)c1 [1-98] |
| 79.4 nM | 5.01 nM | 1000 nM | – | – | – | COC(=O)CN(C)Cc1ccc(-n2ccnc(NC3CCN(C/C(C)=C/c4ccccc4)CC3)c2=O)cc1 [1-99] |
| 126 nM | 25.1 nM | 1000 nM | – | – | – | COC(=O)CC(=O)NCc1ccc(Cn2ccnc(NC3CCN(C/C(C)=C/c4ccccc4)CC3)c2=O)cc1 [1-100] |
| 126 nM | 6.31 nM | 1580 nM | – | – | – | CCOC(=O)CN(Cc1ccccc1)C(=O)Cn1ccnc(NC2CCN(C/C(C)=C/c3ccccc3)CC2)c1=O [1-101] |
| 31.6 nM | 2 nM | 3160 nM | – | – | – | C/C(=C\c1ccccc1)CN1CCC(Nc2nccn(CC(=O)NCCN(C)C)c2=O)CC1 [1-102] |
| 25.1 nM | 3.16 nM | 200 nM | – | – | – | C/C(=C\c1ccccc1)CN1CCC(Nc2nccn(Cc3cccc(NCCN(C)C)c3)c2=O)CC1 [1-103] |
